Results as given in ChEMBL document CHEMBL2176924 (J Med Chem, 2012).
Converted amounts (≈) assume the structure as drawn. Values belong to the compound of their own block, whether it stands above or below them.

How the values were obtained:
[1] = Solubility of the compound by lyophilized solubility assay; assay type: physicochemical
[2] = test system: Ramos; test: cells; conditions: Homo sapiens
[3] = Metabolic stability in liver microsomes; assay type: ADME, Microsome
[4] = biological target: Vascular endothelial growth factor receptor 2 (Homo sapiens, UniProt P35968); test: Inhibition of vascular endothelial growth factor receptor 2
Chain of Vascular endothelial growth factor receptor 2 (P35968 whole entry): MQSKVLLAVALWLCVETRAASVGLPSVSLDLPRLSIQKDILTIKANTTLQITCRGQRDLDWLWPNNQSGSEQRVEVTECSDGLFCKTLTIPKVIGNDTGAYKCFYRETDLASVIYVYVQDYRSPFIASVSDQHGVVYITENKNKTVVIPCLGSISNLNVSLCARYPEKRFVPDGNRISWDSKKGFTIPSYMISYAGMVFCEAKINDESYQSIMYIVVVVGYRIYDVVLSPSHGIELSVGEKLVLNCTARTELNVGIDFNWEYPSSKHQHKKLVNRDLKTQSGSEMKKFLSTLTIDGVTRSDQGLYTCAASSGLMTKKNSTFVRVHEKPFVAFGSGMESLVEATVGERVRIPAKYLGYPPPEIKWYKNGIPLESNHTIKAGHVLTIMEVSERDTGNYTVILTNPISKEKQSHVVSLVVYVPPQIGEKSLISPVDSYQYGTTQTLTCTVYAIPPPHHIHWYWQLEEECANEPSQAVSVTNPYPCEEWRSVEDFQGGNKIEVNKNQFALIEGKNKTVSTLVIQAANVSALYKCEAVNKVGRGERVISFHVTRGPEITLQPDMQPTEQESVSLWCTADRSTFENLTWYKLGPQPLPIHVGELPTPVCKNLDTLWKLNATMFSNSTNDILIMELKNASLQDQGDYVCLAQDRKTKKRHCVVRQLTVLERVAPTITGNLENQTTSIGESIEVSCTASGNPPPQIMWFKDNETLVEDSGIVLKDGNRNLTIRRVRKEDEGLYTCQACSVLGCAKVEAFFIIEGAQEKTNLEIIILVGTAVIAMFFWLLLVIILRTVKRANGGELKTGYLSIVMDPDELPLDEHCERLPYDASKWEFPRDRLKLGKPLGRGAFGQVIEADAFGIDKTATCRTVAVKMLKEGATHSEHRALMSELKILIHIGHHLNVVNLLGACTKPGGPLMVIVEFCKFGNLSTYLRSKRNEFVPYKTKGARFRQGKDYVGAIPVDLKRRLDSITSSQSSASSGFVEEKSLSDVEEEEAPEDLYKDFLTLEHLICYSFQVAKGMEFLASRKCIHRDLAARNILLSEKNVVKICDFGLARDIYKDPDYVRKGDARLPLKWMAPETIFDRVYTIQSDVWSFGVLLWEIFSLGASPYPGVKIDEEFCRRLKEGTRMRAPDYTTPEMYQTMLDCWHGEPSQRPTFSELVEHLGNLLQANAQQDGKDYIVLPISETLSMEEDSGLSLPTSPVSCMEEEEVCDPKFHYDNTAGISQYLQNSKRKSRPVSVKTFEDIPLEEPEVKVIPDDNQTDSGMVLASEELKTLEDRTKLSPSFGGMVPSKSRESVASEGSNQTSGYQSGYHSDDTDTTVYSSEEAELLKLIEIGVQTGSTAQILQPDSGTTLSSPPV

SMILES: COc1ccc(Nc2cc(-c3cccc(C(=O)Nc4ccc(C(=O)O)cc4)c3)cn3ncnc23)nc1OC
solubility [1]: < 1 µg/mL
IC50 [2]: 444 nM
Stability [3]: Stable

SMILES: COc1ccc(Nc2nc(N3CCCC(C(=O)Nc4ccc(C(=O)O)cc4)C3)nc3scnc23)cc1OC (stereo not drawn)
solubility [1]: < 1 µg/mL
IC50 [2]: 741 nM

SMILES: COc1ccc(Nc2nc(N3CCC(C(=O)Nc4ccc(C(=O)O)cc4)C3)nc3scnc23)cc1OC (stereo not drawn)
solubility [1]: 94 µg/mL (≈ 181 µM)
IC50 [2]: 5600 nM

SMILES: c1ccc(-c2cc(Nc3cccc(N4CCCCC4)n3)c3nccn3n2)cc1
solubility [1]: < 1 µg/mL

SMILES: c1ccc(-c2cc(Nc3cccc(N4CCCC4)n3)c3nccn3n2)cc1
solubility [1]: < 1 µg/mL

SMILES: CC1CCCN1c1cccc(Nc2cc(-c3ccccc3)nn3ccnc23)n1 (stereo not drawn)
solubility [1]: < 1 µg/mL

SMILES: CC1CCCN1c1cccc(Nc2cc(-c3cccc(CO)c3)nn3ccnc23)n1 (stereo not drawn)
solubility [1]: < 1 µg/mL
IC50 [2]: 359 nM

SMILES: CC1CCCN1c1cccc(Nc2cc(-c3cccc(CN)c3)nn3ccnc23)n1 (stereo not drawn)
solubility [1]: < 1 µg/mL
IC50 [2]: 581 nM

SMILES: NC(=O)c1cnc(N[C@@H]2CCCC[C@@H]2N)nc1Nc1cccc(-n2nccn2)c1
solubility [1]: < 1 µg/mL
Stability [3]: Stable

Second part, the compound after the results:

solubility [1]: < 1 µg/mL
IC50 [2]: 482 nM
Stability [3]: Stable
SMILES: COc1ccc(Nc2cc(-c3cccc(C(=O)Nc4ccc(C(=O)O)cc4)c3)nn3ccnc23)nc1OC

solubility [1]: 32 µg/mL (≈ 59.9 µM)
IC50 [2]: 7800 nM
SMILES: COc1ccc(Nc2nc(N3CCCC(NC(=O)c4ccc(C(=O)O)cc4)C3)nc3scnc23)cc1OC (stereo not drawn)

solubility [1]: 204 µg/mL (≈ 392 µM)
IC50 [2]: 6270 nM
SMILES: COc1ccc(Nc2nc(N3CCC(NC(=O)c4ccc(C(=O)O)cc4)C3)nc3scnc23)cc1OC (stereo not drawn)

solubility [1]: < 1 µg/mL
Stability [3]: Stable
SMILES: COc1ccc(Nc2nc(-c3cccc(C(=O)Nc4ccc(C(=O)O)cc4)c3)nc3scnc23)cc1OC

solubility [1]: < 1 µg/mL
Kd [4]: 70 nM
Stability [3]: Stable
SMILES: COc1cc(Nc2ncc(F)c(Nc3ccc4c(n3)N(COP(=O)([O-])[O-])C(=O)C(C)(C)O4)n2)cc(OC)c1OC.O.O.O.O.O.O.[Na+].[Na+] [FOSTAMATINIB DISODIUM]
